The record followed here is patent US20250027055A1, “METHOD OF CULTURING THREE-DIMENSIONAL CELLULAR TISSUES” (priority 2021, published 2025).

Data set [1] relates to vascular endothelial cells. The data set is described as follows: Comparative experiment: liver tissue of hepatocytes only and separate three-dimensional tissue of vascular endothelial cells and hepatic stellate cells in the same well, monocrotaline exposure; CD31 fluorescent immunostaining. The data set is classed as cell-based. The note with it: hepatocyte tissue and endothelial/stellate tissue separate, not in contact, various concentrations of monocrotaline, FIG. 2B. The source says: FIG. 2A is a schematic diagram illustrating a comparative experiment. […] Then, after exposure to various concentrations of monocrotaline, these tissues were fixed and stained for CD31 by fluorescent immunostaining.
FIG. 2B is a fluorescence microscopy image showing the results of immunostaining.

The test system of data set [2] is vascular endothelial cells. In words: Monocrotaline exposure of three-dimensional cellular tissue containing hepatocytes, vascular endothelial cells and hepatic stellate cells; CD31 fluorescent immunostaining. The data set is classed as cell-based. The note with it: mixed three-cell-type three-dimensional tissue; exposure to various concentrations of monocrotaline; FIG. 1B. The source says: FIG. 1A is a schematic diagram illustrating the above experiment. […] Then, after exposure to various concentrations of monocrotaline, the three-dimensional cellular tissue was fixed and stained for CD31 by fluorescent immunostaining. CD31 is a marker for endothelial cells.
The upper row of FIG. 1B is a fluorescence microscopy image showing the results of immunostaining. The lower row of FIG. 1B is a skeletonized image obtained by processing the image in the upper row of FIG. 1B.

Molecules are shown by their SMILES.

Take `C[C@H]1C(=O)O[C@@H]2CCN3CC=C(COC(=O)[C@](C)(O)[C@]1(C)O)[C@H]23` [monocrotaline]: the “damage to the vascular endothelial cells of the blood vessels (CD31 immunostaining)” value was “no damage to the vascular endothelial cells of the blood vessels was observed” in data set [1] and “damaged in a monocrotaline concentration-dependent manner” in data set [2].
